ChEMBL document CHEMBL1149013, “Antitumor agents, 82. Cytotoxic sapogenols from Aesculus hippocastanum” (1986)
In brackets after ≈: the same amount, converted by molar mass. Activity calls are given as the source filed them. The rule behind the calls is not given here.

Tested on: KB
Test: Cytotoxicity against human KB cells
Assay type: functional
Details: for EC50: read-out: ED50 (the source's name)

SMILES | Activity | EC50 [µg/mL]
CC1(C)C[C@H]2C3=CC[C@@H]4[C@@]5(C)CC[C@H](O)C(C)(C)[C@@H]5CC[C@@]4(C)[C@]3(C)C[C@@H](O)[C@@]2(CO)[C@@H](O)[C@@H]1O | inactive | 
C/C=C(/C)C(=O)O[C@H]1[C@H](OC(=O)/C(C)=C/C)C(C)(C)C[C@H]2C3=CC[C@@H]4[C@@]5(C)CC[C@H](O)C(C)(C)[C@@H]5CC[C@@]4(C)[C@]3(C)[C@@H](O)[C@@H](O)[C@]21CO [HIPPOCAESCULIN] |  | 3.6 (≈ 5.37 µM)
CC1(C)OC[C@@]23[C@@H]4OC(C)(C)O[C@@H]4[C@]4(C)C(=CC[C@@H]5[C@@]6(C)CC[C@H](O)C(C)(C)[C@@H]6CC[C@]54C)[C@@H]2CC(C)(C)[C@@H](O)[C@@H]3O1 |  | 4 (≈ 6.82 µM)
CC1(C)C[C@H]2C3=CC[C@@H]4[C@@]5(C)CC[C@H](O)C(C)(C)[C@@H]5CC[C@@]4(C)[C@]3(C)[C@@H](O)[C@@H](O)[C@@]2(CO)[C@@H](O)[C@@H]1O | inactive | 
C/C=C(/C)C(=O)O[C@H]1[C@H](O)[C@]2(CO)[C@H](O)C[C@]3(C)C(=CC[C@@H]4[C@@]5(C)CC[C@H](O)C(C)(C)[C@@H]5CC[C@]43C)[C@@H]2CC1(C)C |  | 3 (≈ 5.24 µM)
